Test system: GATA3 protein
Assay: GATA3 Western Blot in transfected MCF7 cells (6-well plate)
Format: cell-based, human
Conditions: 30 nM, 48 hours, average band ratio ± S.D.
Method: MCF7 cells were plated in 6-well plates at final counts of 70,000 cells/well in 2 ml of complete growth media. Transfection was performed using 2.5 uL of RNAiMax per well. Final concentration of siNAs was 30 nM (screen) and 30, 0.3, and 0.003 nM (dose response study). Protein lysates were harvested 24, 48, and 72 hours post-transfection (screen) and 72 hours post-transfection (dose response study). Protein lysates were prepared using Cell Disruption Buffer from the PARIS kit (Ambion, cat #1921) according to manufacturer's instructions. Protein concentration was measured using a Bradford Quick Start Kit (Bio-Rad, cat#500-0205).
The protein source for the Western Blot experiments were from transfection of MCF7 cells in a 6 well plate, as described above.
Protein samples were diluted 1:1 in 2× Laemmli buffer with 5% β-mercapto-ethanol and incubated at 95° C. for 5 minutes. 20-40 ug of protein was loaded in each lane of 10% Tris-HCl gel. One lane was designated for MagicMark Protein Standard (Invitrogen # LC5602). The gel was run at 100V for approximately 2 hours. Protein was transferred to a PVDF membrane at 100V for 60 minutes. Once the transfer was finished, the membrane was blocked in 1% Casein in PBS (BioRad Cat#161-0783) for 1 hour on a plate rocker at room temperature followed by the overnight incubation at 4° C. with mouse monoclonal anti-GATA3 primary antibody (Santa Cruz Biotechnology, cat# HG3-31) diluted 1:500 in 1% Casein in PBS. On the next day, the blot was washed 4×5 minutes in PBST (0.1% Tween-20 in PBS) solution and incubated for 30 minutes at room temperature with goat anti-mouse secondary antibody (Pierce Biotechnology, cat#3 31430) diluted 1:20,000 in 1% Casein. […]
The protein bands were quantified by computing their density which is defined by the ratio between the total intensity of all pixels and the area of the rectangle drawn around each band (intensity/mm^2). The density was calculated by the BioRad software.
The level of protein was quantified using the Bio-Rad VersaDoc Imager according to the protocols of that piece of equipment. […]

For “30263-DC: GATA3 siNA duplex, site 817: sense B cGccucuGcuucAuGGAuc TTB (SEQ 79), antisense GAUccAuGAAGcAGAGGcGUU (SEQ 80) (sense CGCCUCUGCUUCAUGGAUCTT; antisense GAUCCAUGAAGCAGAGGCGUU; chemistry not fully specified)”, the “Density (GATA3)/Density (α-Tubulin)” value was 0.016 ± 0.0003.

— patent US20120029054A1, “RNA Interference Mediated Inhibition of GATA Binding Protein 3 (GATA3) Gene Expression Using Short Intefering Nucleic Acid (siNA)” (Merck Sharp & Dohme Corp., priority 2009, published 2012)
